Patent US8173133B2, “Acyl pseudodipeptides which carry a functionalized auxiliary arm” (OM Pharma, priority 1999, dated 2012)
Converted amounts (≈) assume the structure as drawn.

Columns and labels:
[1] = system: CD83, CD86 surface markers of predendritic cells (DC-6); test: dendritic cell differentiation test: CD83, CD86 surface marker expression; type: cell-based, human; details: for CD86 % CD / CD86 Fluorescence: 10 μg/ml; for CD86 % CD: products redissolved in pyrogen-free water, % of dendritic cells; for CD86 Fluorescence: mean fluorescence value
Procedure: (§1) The ability of products of the invention to induce maturation of predendritic cells into dendritic cells was assessed. The following parameters were measured: FITC-Dextran conjugate take-up and expression of CD83, CD86 surface markers.
(§2) Mononucleated cells of peripheral blood are isolated from buffy coats of healthy donors. Purified monocytes by adherence selection are resuspended in RPMI-1640 medium containing 10% of foetal calf serum (FCS), GM-CSF and IL-4 (10 ng/ml) at a density of 1×10^6 cells/ml. Cells are divided into Petri Dishes (10×10^6 cells per dish) and cultured for 6 days with a change to fresh medium after 3 days. Cells thus obtained are called predendritic cells (DC-6). Maturation of predendritic cells into mature dendritic cells is achieved by incubating cells with diluted solutions of the products or LPS (positive control) for 3 more days (see product section below). At day 9 (DC-9), cells are harvested and analyzed for different indicators of dendritic cell maturation: assessment of CD83, CD86 surface marker expression as well as of their ability to take up FITC-Dextran conjugate. All these parameters are analyzed by an EPICS-XL-MCL model FACS (Coulter Immunology, Hialeah, […]).
(§3) Expression of surface markers is given as % of mean fluorescence of LPS-activated cells (positive control); FITC-Dextran conjugate take-up rate is calculated based on take-up of cells maintained in basic medium and is expressed in %.
(§4) Solutions are incubated at 37° C. for 20 minutes, subjected to vigorous stirring during 3 minutes and then diluted to 100 μg/ml in RPMI-1640 culture medium and used in diluted state at concentrations ranging from 10 μg/ml to 0.03 μg/ml. Reference Product: E. coli lipopolysaccharide (LPS, DIFCO, Detroit, Mich., U.S.A.), as a 5 mg/ml stock solution in PBS. An intermediate 100 μg/ml solution is prepared in RPMI 1640 culture medium. Concentrations of dilute solutions being tested range from 1 μg/ml to 0.03 μg/ml.
(§5) In another series of experiments, all acyl dipeptide-like compounds were freeze-dried and directly redissolved into pyrogen-free water. Different products as well as LPS control are tested at a concentration of 10 μg/ml. Results are given as % of dendritic cells and mean fluorescence value for dextran phagocytosis or CD86 surface marker expression.

[2] = system: predendritic cells (DC-6); test: dendritic cell differentiation test: FITC-Dextran take-up; type: cell-based, human; details: for Dextran % CD / Dextran Fluorescence: 10 μg/ml; for Dextran % CD: products redissolved in pyrogen-free water, % of dendritic cells; for Dextran Fluorescence: mean fluorescence value
Procedure: as §1, §2, §3, §4, §5
Immature dendritic cells (DC-6) resulting from monocyte differentiation, through the joint action of GM-CSF and IL-4, are able to incorporate FITC-Dextran conjugate. During the maturation process, cells lose their ability to incorporate the FITC-Dextran conjugate. Assays are conducted upon reaching the DC-9 differentiation stage.

[3] = system: Limulus Amoebocyte Lysate
murine macrophage cells = test: nitric oxide production by murine macrophage cells (Griess); type: cell-based, C57/BL6 mice; details: for Max concentration: concentration at maximum amplitude; for EC50 conc: concentration corresponding to 50% of maximum amplitude; for Min concentration: lowest concentration inducing a significant response
Excerpt: Six-week old male C57/BL6 mice are killed by CO2 inhalation. The hip, femur, tibia and posterior appendage bones are removed. The bone marrow is extracted from the bone lumen by injecting Dulbecco's Modified Eagle Medium (DH medium) from the end portions which had been excised. The stem cells are washed and resuspended (approximate cell concentration 4000 cells/ml) in DH medium supplemented with 20% equine serum (SH) and 30% L929 cell supernatant. L929 is a murine fibroblast cell line the supernatant fluid of which is rich in growth factor for macrophage cells (M-CSF). The cell suspension is divided into Petri dishes which are incubated for 8 days in an incubator at 37° C. under 8% CO2 and a moisture saturated atmosphere.
After 8 days, the stem cells have differentiated into mature macrophage cells. The macrophage cells are scraped off by rapid cooling, washed and resuspended in DH medium supplemented with 5% foetal calf serum (FCS), amino acids and antibiotics. The cell density is adjusted to 700 000 cells/ml.
Products previously dissolved in DH medium supplemented with 5% FCS, amino acids and antibiotics are serially diluted directly in microtiter plates. The products are tested in triplicates and each microtiter plate comprises a negative control containing plain medium. The final volume in each well is 100 μl.
100 μl of cell suspension are added to diluted solutions of such products and the cells are incubated for 22 hours in an incubator at 37° C., under 8% CO2 and a moisture saturated atmosphere. At the end of the incubation period with the products, 100 μl of supernatant are withdrawn and the nitrite concentration is determined by running a Griess reaction.
100 μl of Griess reagent (5 mg/ml of sulfanilamide+0.5 mg/ml of N-(1-naphtylethylene diamine hydrochloride)) in 2.5% aq. phosphoric acid, are added to each well. The microtiter plates are read with a spectrophotometer at 562 nm wavelength against a reference sample at 690 nm. The nitrite concentration is proportional to nitric oxide content being formed. The nitrite content is determined based on a standard curve.
The results are given as mean value±standard deviation and plotted as a dose versus response curve.
From this dose versus response curve, 3 curve variables are computed:
Max: maximum curve amplitude and corresponding concentration
EC50: concentration corresponding to 50% of maximum amplitude
Min: lowest concentration inducing a significant proliferation corresponding to the blank±3× standard deviation value
Concentration values corresponding to EC50 and Min are determined from line segments joining different points on the curve.
If the curve has no plateau phase but an ascending configuration for the highest concentration being tested, a “>” sign is shown before “Max” and “EC50” values.

SMILES | CD86 % CD [1] [%] | CD86 Fluorescence [1] | concentration inducing an increase in expression of CD83 and CD86 surface markers ([1]; FIGS. 75 & 76) [µg/mL] | Dextran % CD [2] [%] | Dextran Fluorescence [2] | phagocytic capacity retained (% incorporation of FITC-Dextran of unchallenged cells) ([2]; DC-9 stage, FIG. 74) [%] | concentration required to induce full decrease of Dextran take-up ([2]; FIG. 74) | concentration inducing differentiation of DC-6 cells into DC-9 cells ([2]; summary of phagocytosis and marker data) [µg/mL] | LAL EU/mg of product [3] | LAL ng of LPS equivalent per mg of product [3] | nitric oxide production (murine macrophage cells) | Max concentration (murine macrophage cells) [µg/mL] | EC50 conc (murine macrophage cells) [µg/mL] | Min concentration (murine macrophage cells) [µg/mL]
CCCCCCCCCCCC(=O)O[C@H](CCCCCCCCCCC)CC(=O)NC(CCOP(=O)(O)O)C(=O)NCCC[C@H](COC(=O)CCCCCN)NC(=O)C[C@H](O)CCCCCCCCCCC (mixture of isomers) [OM-197-MP-AC (R/S, R), (3RS,9R)-3-[(R)-3-dodecanoyloxytetradecanoylamino]-4oxo-5-aza-9-[(R)-3-hydroxytetradecanoylamino]-decan-10-ol 1-dihydrogen-phosphate(6-aminohexanoate)] | 80.0 | 6.0 | 0.1 | 84.6 | 6.3 | 22 | at least 1 μg/ml | 0.1 | 0.14 EU/mg of product | 0.011 ng of LPS equivalent per mg of product | higher proliferation response as compared to positive control | > 100 | > 10.69 | 1.04
CCCCCCCCCCCC(=O)O[C@H](CCCCCCCCCCC)CC(=O)NC(CCOP(=O)(O)O)C(=O)NCCCC(COC(=O)CCCCCO)NC(=O)C[C@H](O)CCCCCCCCCCC (stereo partly drawn) [OM-197-FV8, 3-[(R)-3-dodecanoyloxytetradecanoylamino]-4-oxo-5-aza-9-[(R)-3-hydroxytetradecanoylamino]-decan-1,10-diol 1-dihydrogenphosphate 10-(6-hydroxyhexanoate)] |  |  |  |  |  |  |  |  | 1820 EU/mg of product | 145.6 ng of LPS equivalent per mg of product |  | 51 | 7.89 (≈ 7.53 µM) | 1.45
CCCCCCCCCCCC(=O)O[C@H](CCCCCCCCCCC)CC(=O)N[C@H](CC(=O)O)C(=O)NCCC[C@H](COC(=O)CCCCCN)NC(=O)C[C@H](O)CCCCCCCCCCC [OM-197-MC-AC, N—[(R)-3-dodecanoyloxytetradecanoyl]-D-aspartic acid, α-N-{(4R)-5-(6-aminohexanoyloxy)-4-[(R)-3-hydroxytetradecanoylamino]pentyl}amide] | 67.4 | 5.2 |  | 68.3 | 5.2 |  |  |  |  |  |  | 25 | 4.91 (≈ 5 µM) | 0.91
CCCCCCCCCCCC(=O)O[C@H](CCCCCCCCCCC)CC(=O)N[C@H](CC(=O)O)C(=O)NCCC[C@H](COC(=O)CCCCCNC(=O)CCC(=O)O)NC(=O)C[C@H](O)CCCCCCCCCCC [OM-197-MC-AC-Succ, N—[(R)-3-dodecanoyloxytetradecanoyl]-D-aspartic acid, α-N-{(4R)-5-(6-succinylamidohexanoxyloxy)-4[(R)-3-hydroxy-tetradecanoylamino]pentyl}amide] |  |  |  |  |  |  |  |  | <0.05 EU/mg of product | <0.004 ng of LPS equivalent per mg of product |  | > 16 | 0.72 (≈ 0.666 µM) | 0.28
CCCCCCCCCCCC(=O)O[C@H](CCCCCCCCCCC)CC(=O)N[C@H](CC(=O)O)C(=O)NCCC[C@H](COC(=O)CCCCCO)NC(=O)C[C@H](O)CCCCCCCCCCC [OM-197-MC-FV7, N—[(R)-3-dodecanoyloxytetradecanoylamino]-D-aspartic acid, α-N-{(4R)-5-hydroxy-4-[(R)-3-hydroxytetradecanoylamino]pentyl}amide 5-O-(6-hydroxyhexanoate)] |  |  |  |  |  |  |  |  | <0.05 EU/mg of product | <0.004 ng of LPS equivalent per mg of product |  | > 25.6 | > 3.70 | 0.36
CCCCCCCCCCCC(=O)O[C@H](CCCCCCCCCCC)CC(=O)N[C@H](CC(=O)O)C(=O)NCCC[C@H](COP(=O)(O)O)NC(=O)C[C@H](O)CCCCCCCCCCC [OM-197-MC-MP, N—[(R)-3-dodecanoyloxytetradecanoyl]-D-aspartic acid, α-N-{(4R)-5-dihydroxyphosphoryloxy-4-[(R)-3-hydroxytetradecanoyl-amino]pentyl}amide] |  |  |  |  |  |  |  |  | 210.5 EU/mg of product | 16.8 ng of LPS equivalent per mg of product |  | 51 | 1.18 (≈ 1.24 µM) | 0.11
CCCCCCCCCCCC(=O)O[C@H](CCCCCCCCCCC)CC(=O)N[C@@H](CCOP(=O)(O)O)C(=O)NCCC[C@H](COC(=O)CCCCCO)NC(=O)C[C@H](O)CCCCCCCCCCC [OM-197-MP-AC (S, R), (3S,9R)-3-[(R)-3-dodecanoyloxytetradecanoylamino]-4-oxo-5-aza-9-[(R)-3-hydroxytetradecanoylamino]-1,10-diol 1-dihydrogenphosphate 10-(6-hydroxyhexanoate)] |  |  |  |  |  |  |  |  | <0.125 EU/mg of product | <0.01 ng of LPS equivalent per mg of product |  | 40 | 3.28 (≈ 3.13 µM) | 0.59
CCCCCCCCCCC[C@@H](O)CC(=O)N[C@H](CCCNC(=O)[C@@H](CC(=O)O)NC(=O)C(CCCCCC)OC(=O)CCCCCCCCC)COC(=O)CCCCCN (stereo partly drawn) [OM-197-N′(C10-20C8)-MC-AC, N-(2-decanoyloxyoctanoyl)-D-aspartic acid, α-N-{(4R)-5-(6-aminohexanoyloxy)-4-[(R)-3-hydroxytetradecanoylamino]-pentyl}amide] |  |  |  |  |  |  |  |  | <0.5 EU/mg of product | <0.04 ng of LPS equivalent per mg of product | minor production | > 100 | 61.05 (≈ 70.2 µM) | 54.3
CCCCCCCCCCC[C@@H](O)CC(=O)N[C@H](CCCNC(=O)[C@@H](CC(=O)O)NC(C)=O)COC(=O)CCCCCN [OM-197-N′C2-MC-AC, N-acetyl-D-aspartic acid, α-N-{(4R)-5-(6-aminohexanoyloxy)-4-[(R)-3-hydroxytetradecanoylamino]-pentyl}amide] |  |  |  |  |  |  |  |  | <0.5 EU/mg of product | <0.04 ng of LPS equivalent per mg of product |  | 200 |  | 
